Data published in article PMC8482771 (ACS Omega, 2021).

Key:
Type in all cases: cell-based
[1] = target: T1, h-P2X2R (Homo sapiens, UniProt Q9UBL9); assay: Ca2+ influx assay
T1 sequence (Q9UBL9 1-471): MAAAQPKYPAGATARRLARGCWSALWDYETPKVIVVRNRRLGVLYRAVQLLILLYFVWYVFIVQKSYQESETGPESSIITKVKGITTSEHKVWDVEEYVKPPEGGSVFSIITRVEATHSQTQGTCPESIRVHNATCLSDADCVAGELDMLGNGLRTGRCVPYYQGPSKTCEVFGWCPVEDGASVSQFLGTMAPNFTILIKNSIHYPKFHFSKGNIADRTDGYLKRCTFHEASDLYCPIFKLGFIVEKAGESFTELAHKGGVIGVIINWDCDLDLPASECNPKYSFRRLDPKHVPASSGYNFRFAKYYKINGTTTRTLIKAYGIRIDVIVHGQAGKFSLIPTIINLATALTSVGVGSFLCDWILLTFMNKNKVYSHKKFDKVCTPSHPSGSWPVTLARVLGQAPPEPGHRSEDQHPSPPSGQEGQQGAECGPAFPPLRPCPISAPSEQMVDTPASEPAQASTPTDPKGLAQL

[2] = target: T2, h-P2X4R (Homo sapiens, UniProt Q99571); assay: Ca2+ influx assay
T2 sequence (Q99571 1-388): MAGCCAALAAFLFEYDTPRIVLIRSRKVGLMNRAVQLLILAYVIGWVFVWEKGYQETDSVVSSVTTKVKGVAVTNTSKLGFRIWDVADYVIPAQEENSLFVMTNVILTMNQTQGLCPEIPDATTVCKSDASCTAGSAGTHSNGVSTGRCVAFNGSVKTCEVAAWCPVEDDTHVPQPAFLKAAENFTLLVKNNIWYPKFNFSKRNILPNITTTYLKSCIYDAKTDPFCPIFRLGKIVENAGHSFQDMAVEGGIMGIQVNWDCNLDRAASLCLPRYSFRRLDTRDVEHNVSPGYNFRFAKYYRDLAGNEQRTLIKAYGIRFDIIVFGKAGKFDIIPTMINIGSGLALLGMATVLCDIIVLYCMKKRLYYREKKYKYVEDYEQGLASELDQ

[3] = target: h-P2X5 receptor (Homo sapiens, UniProt Q93086); assay: Ca2+ influx assay
[4] = target: T1, h-P2X2R; assay: Mode of inhibition: ATP dose-response curve without and with inhibitor, h-P2X2R
[5] = target: T2, h-P2X4R; assay: Mode of inhibition: ATP dose-response curve without and with inhibitor, h-P2X4R

Sequence of h-P2X5 receptor (Q93086 whole entry): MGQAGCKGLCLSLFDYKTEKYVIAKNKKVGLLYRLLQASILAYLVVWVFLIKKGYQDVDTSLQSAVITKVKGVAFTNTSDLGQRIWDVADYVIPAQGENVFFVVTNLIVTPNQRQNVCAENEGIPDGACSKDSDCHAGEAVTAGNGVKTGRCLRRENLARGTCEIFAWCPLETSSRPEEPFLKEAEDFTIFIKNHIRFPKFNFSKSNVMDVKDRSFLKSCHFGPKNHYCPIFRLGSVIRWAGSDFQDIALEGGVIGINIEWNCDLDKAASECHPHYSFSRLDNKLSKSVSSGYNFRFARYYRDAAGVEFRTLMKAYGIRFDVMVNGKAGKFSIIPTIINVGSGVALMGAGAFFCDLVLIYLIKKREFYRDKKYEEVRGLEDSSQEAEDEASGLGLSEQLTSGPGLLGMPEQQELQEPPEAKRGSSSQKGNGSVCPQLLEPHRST

- EC50 [1]: 1480 nM
- EC50 [2]: 9290 nM
- EC50 [3]: 10600 nM
- EC50 [4]: 1080 nM
- EC50 [5]: 2590 nM
SMILES: Nc1ncnc2c1ncn2[C@@H]1O[C@H](COP(=O)(O)OP(=O)(O)OP(=O)(O)O)[C@@H](O)[C@H]1O [ATP, adenosine triphosphate, reference compound]
